Data as given in PMC10454678, “Synthesis of hydroxy benzoin/benzil analogs and investigation of their antioxidant, antimicrobial, enzyme inhibition, and cytotoxic activities” (Turkish Journal of Chemistry, 2021).
Values after ≈ are worked out from the molar mass of the structure shown. Values joined by “and” are separate entries in the source; they are usually repeats but may differ in a detail not shown here. Identical values can stand only once. Like-named read-outs stand apart in the source and are kept apart here.

Assays:
[1] = system: human cervical cancer cell line (HeLa); assay: MTT cell proliferation, HeLa; settings: for GI50 / IC50: Homo sapiens, HeLa, 24 h; for GI50: read-out: GI50 HeLa cell line; for IC50: read-out: IC50 HeLa cell line
[2] = system: human retinal normal cell line (RPE); assay: MTT cell proliferation, RPE; settings: for GI50 / IC50: Homo sapiens, 24 h; for GI50: read-out: GI50 RPE normal cell line; for IC50: read-out: IC50 RPE normal cell line
acetylcholinesterase = acetylcholinesterase (Homo sapiens, UniProt P22303); assay: biochemical; settings: Tris-HCl pH 8.0, 25 °C, 405 nm; read-out: AChE IC50 (converted)
[3] = system: Escherichia coli ATCC 25922; assay: MIC, microdilution, E. coli; type: cell-based; settings: Escherichia coli
[4] = Copper ions reducing activity (CUPRAC); settings: Trolox equivalents; 30 min dark, room temperature, 450 nm
Bacillus cereus Roma709 = assay: MIC, microdilution, B. cereus; type: cell-based; settings: Bacillus cereus
[5] = system: Yersinia pseudotuberculosis ATCC911; assay: microbe, parasite or virus in culture; type: cell-based; settings: Yersinia pseudotuberculosis, ATCC911, read-out: MIC Yp
[6] = system: Pseudomonas aeruginosa ATCC27853; assay: MIC, microdilution, P. aeruginosa; type: cell-based; settings: Pseudomonas aeruginosa
α-glucosidase = assay: α-Glucosidase inhibition; type: biochemical; settings: PNPG, pH 6.8, 37 °C, 400 nm
Experimental: It was incubated at 37 °C for 15 min. Similarly, an enzyme-free blank was prepared. The reaction was stopped when sodium carbonate (50 μL, 0.2 M) was added.

butyrylcholinesterase = butyrylcholinesterase (Homo sapiens, UniProt P06276); assay: biochemical; settings: Tris-HCl pH 8.0, 25 °C, 405 nm; read-out: BChE IC50 (converted)
[7] = DPPH radical scavenging activity; settings: 0.1 mM DPPH, 50 min dark, 517 nm
[8] = Ferric reducing antioxidant power (FRAP) assay; settings: Trolox equivalents; compounds 2 mg/mL, 30 °C 30 min, 595 nm
[9] = system: Mycobacterium smegmatis ATCC607; assay: MIC, microdilution, M. smegmatis; type: cell-based; settings: Tub., BHI broth, 36 °C; for MIC: Mycolicibacterium smegmatis, ATCC607, 72 h, read-out: MIC Ms; for MIC Ms: 72 h
[10] = system: Candida albicans ATCC60193; assay: MIC, microdilution, C. albicans; type: cell-based; settings: Candida albicans, read-out: MIC Ca
[11] = system: Streptococcus mutans RSKK07038; assay: MIC, microdilution, S. mutans; type: cell-based; settings: Streptococcus mutans, read-out: MIC Sm
[12] = system: Staphylococcus aureus ATCC25923; assay: MIC, microdilution, S. aureus; type: cell-based; settings: Staphylococcus aureus
[13] = system: Enterococcus faecalis ATCC29212; assay: MIC, microdilution, E. faecalis; type: cell-based; settings: Enterococcus faecalis
[14] = ATCC27853, Gram (-), Mueller-Hinton broth, 18-24 h, 36 °C, read-out: MIC Pa
[15] = ATCC60193, fungus, YEPD broth, 48 h, 36 °C
[16] = RSKK07038, Gram (+), BHI broth, 72 h, 36 °C
[17] = ATCC25922, Gram (-), Mueller-Hinton broth, 18-24 h, 36 °C, read-out: MIC Ec
[18] = ROMA709, Gram (+), Mueller-Hinton broth, 18-24 h, 36 °C, read-out: MIC Bc
[19] = ATCC25923, Gram (+), Mueller-Hinton broth, 18-24 h, 36 °C, read-out: MIC Sa
[20] = ATCC29212, Gram (+), Mueller-Hinton broth, 18-24 h, 36 °C, read-out: MIC Ef

Chain of butyrylcholinesterase (P06276 29-602): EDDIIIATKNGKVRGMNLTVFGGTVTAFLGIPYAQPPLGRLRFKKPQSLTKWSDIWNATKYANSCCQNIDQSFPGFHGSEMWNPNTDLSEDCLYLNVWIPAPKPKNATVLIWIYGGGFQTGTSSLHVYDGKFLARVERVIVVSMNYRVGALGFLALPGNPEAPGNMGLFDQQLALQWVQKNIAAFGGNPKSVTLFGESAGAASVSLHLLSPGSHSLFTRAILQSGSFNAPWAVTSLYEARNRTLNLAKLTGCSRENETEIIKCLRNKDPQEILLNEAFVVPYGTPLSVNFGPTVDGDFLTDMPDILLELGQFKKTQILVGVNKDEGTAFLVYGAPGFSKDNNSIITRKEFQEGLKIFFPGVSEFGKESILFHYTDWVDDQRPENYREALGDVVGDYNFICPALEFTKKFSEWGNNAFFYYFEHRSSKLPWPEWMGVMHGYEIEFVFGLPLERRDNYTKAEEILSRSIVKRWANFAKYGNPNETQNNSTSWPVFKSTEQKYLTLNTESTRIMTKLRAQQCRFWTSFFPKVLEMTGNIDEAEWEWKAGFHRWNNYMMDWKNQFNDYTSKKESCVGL
Chain of acetylcholinesterase (P22303 32-614, species assumed): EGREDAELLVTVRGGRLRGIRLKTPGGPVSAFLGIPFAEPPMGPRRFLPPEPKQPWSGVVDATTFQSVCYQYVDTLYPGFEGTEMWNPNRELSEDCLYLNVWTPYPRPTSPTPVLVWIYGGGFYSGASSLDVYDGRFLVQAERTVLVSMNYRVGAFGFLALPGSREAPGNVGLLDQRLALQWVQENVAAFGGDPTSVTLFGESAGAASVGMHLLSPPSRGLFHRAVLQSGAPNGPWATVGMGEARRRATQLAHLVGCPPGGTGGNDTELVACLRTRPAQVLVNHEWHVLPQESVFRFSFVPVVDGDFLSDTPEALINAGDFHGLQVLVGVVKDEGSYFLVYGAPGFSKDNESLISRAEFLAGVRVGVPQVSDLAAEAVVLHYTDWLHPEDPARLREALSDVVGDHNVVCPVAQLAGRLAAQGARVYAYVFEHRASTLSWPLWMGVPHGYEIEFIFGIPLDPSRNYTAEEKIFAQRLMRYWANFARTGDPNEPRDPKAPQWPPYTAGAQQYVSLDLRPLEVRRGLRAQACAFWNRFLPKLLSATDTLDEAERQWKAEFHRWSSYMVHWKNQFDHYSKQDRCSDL

| SMILES | IC50 (acetylcholinesterase) [µM] | MIC ([3]; ATCC25922, read-out: MIC Ec) [µg/mL] | CUPRAC, copper reducing antioxidant power [4] | MIC (Bacillus cereus Roma709; ROMA709, read-out: MIC Bc) [µg/mL] | MIC [5] [µg/mL] | MIC [6, 14] [µg/mL] | α-Glucosidase IC50 (α-glucosidase) [µg/mL] | IC50 (butyrylcholinesterase) [µM] | DPPH radical scavenging capacity (SC50) [7] [mg/mL] | FRAP, the iron reducing antioxidant power [8] [μg/mL trolox/gram DW] | MIC [9] [µg/mL] | MIC [10, 15] [µg/mL] | MIC [11, 16] [µg/mL] | MIC ([12]; ATCC25923, read-out: MIC Sa) [µg/mL] | MIC [3, 17] [µg/mL] | MIC (Bacillus cereus Roma709; [18]) [µg/mL] | MIC [12, 19] [µg/mL] | MIC [13, 20] [µg/mL] | MIC Ms [9] [µg/mL] | further results |
| --- | --- | --- | --- | --- | --- | --- | --- | --- | --- | --- | --- | --- | --- | --- | --- | --- | --- | --- | --- | --- |
| N.N.[Cl][Pt][Cl] [Cisplatin, reference compound] |  |  |  |  |  |  |  |  |  |  |  |  |  |  |  |  |  |  |  | GI50 HeLa cell line ([1]; MTT, 24 h incubation): 1.13 µg/mL; IC50 HeLa cell line ([1]; MTT, 24 h incubation): 42.76 µg/mL; GI50 RPE normal cell line ([2]; MTT, 24 h incubation): 1.56 µg/mL; IC50 RPE normal cell line ([2]; MTT, 24 h incubation): 58.77 µg/mL |
| O=C(c1ccc(O)cc1)C(O)c1ccccc1 (stereo not drawn) [Compound 2, 2-Hydroxy-1-(4-hydroxyphenyl)-2-phenylethanone] | 1070 | 1030 (≈ 4520 µM) | 140.00 ± 11.5 μg/mL trolox/gram DW | 1030 (≈ 4520 µM) | 1030 (≈ 4520 µM) | 2060 (≈ 9050 µM) | 547.97 | 323 | 13.78 ± 1.3 | 1881 ± 75.5 | 129 (≈ 565 µM) | 516 (≈ 2260 µM) | 1030 (≈ 4520 µM) | 1030 (≈ 4520 µM) |  |  |  |  |  |  |
| O=C(c1cccc(O)c1)C(O)c1cccc(O)c1 (stereo not drawn) [Compound 4, 1,2-Bis(3-hydroxyphenyl)-2-hydroxyethanone] | 454 |  | 398.33 ± 22.1 μg/mL trolox/gram DW |  | 640 (≈ 2620 µM) | 320 (≈ 1310 µM) | >1000 | 462 | 8.16 ± 0.3 | 1534 ± 75.0 | 160 (≈ 655 µM) | 1280 (≈ 5240 µM) |  |  | 320 (≈ 1310 µM) | 160 (≈ 655 µM) | 640 (≈ 2620 µM) |  |  | GI50 [1]: 1.12 µg/mL (≈ 4.59 µM); IC50 [1]: 42.7 µg/mL (≈ 175 µM); GI50 [2]: 1.15 µg/mL (≈ 4.71 µM); IC50 [2]: 30.3 µg/mL (≈ 124 µM) |
| O=C(c1ccc(O)cc1)C(O)c1cccc(O)c1 (stereo not drawn) [Compound 5, 2-Hydroxy-2-(3-hydroxyphenyl)-1-(4-hydroxyphenyl)ethanone] | 3230 |  | 1113.33±64 μg/mL trolox/gram DW and 1113.33 ± 64.9 μg/mL trolox/gram DW |  | 775 (≈ 3170 µM) | 96 (≈ 393 µM) | >1000 | > 4090 | 8.12 ± 1.2 | 2090 ± 101.4 | 48 (≈ 197 µM) |  | 48 (≈ 197 µM) |  | 387 (≈ 1580 µM) | 48 (≈ 197 µM) | 96 (≈ 393 µM) | 1550 (≈ 6350 µM) |  |  |
| O=C(c1cc(O)cc(O)c1)C(O)c1cc(O)cc(O)c1 (stereo not drawn) [Compound 7, 1,2-Bis(3,5-dihydroxyphenyl)-2-hydroxyethanone] | 443 | 141 (≈ 510 µM) | 95.00 ± 2.4 μg/mL trolox/gram DW | 141 (≈ 510 µM) | 1140 (≈ 4110 µM) | 283 (≈ 1020 µM) | >1000 | > 3620 | 10.85 ± 0.7 | 1715 ± 96.8 | 70 (≈ 253 µM) | 283 (≈ 1020 µM) |  | 283 (≈ 1020 µM) |  |  |  | 141 (≈ 510 µM) |  |  |
| O=C(C(=O)c1ccc(O)cc1)c1ccccc1 [Compound 9, 1-(4-Hydroxyphenyl)-2-phenylethane-1,2-dione] | 637 | 108 (≈ 477 µM) | 48.33 ± 5.5 μg/mL trolox/gram DW | 108 (≈ 477 µM) | 217 (≈ 959 µM) | 108 (≈ 477 µM) | 47.78 | > 4420 | 8.64 ± 0.5 | 1946 ± 83.7 | 108 (≈ 477 µM) | 108 (≈ 477 µM) |  | 108 (≈ 477 µM) |  |  |  | 108 (≈ 477 µM) |  |  |
| O=C(C(=O)c1cccc(O)c1)c1cccc(O)c1 [Compound 11, 1,2-Bis(3-hydroxyphenyl)ethane-1,2-dione] | 257 |  | 175.00 ± 3.5 μg/mL trolox/gram DW |  | 145 (≈ 599 µM) | 18 (≈ 74.3 µM) | 66.700 | 1400 | 10.03 ± 0.8 | 1340 ± 37.9 | 9 to 18 (≈ 37.2 to 74.3 µM) | 36 (≈ 149 µM) | 18 (≈ 74.3 µM) |  | 36 (≈ 149 µM) | 18 (≈ 74.3 µM) | 9 (≈ 37.2 µM) |  | 9 (≈ 37.2 µM) |  |
| O=C(C(=O)c1cccc(O)c1)c1ccc(O)cc1 [Compound 12, 1-(4-Hydroxyphenyl)-2-(3-hydroxyphenyl)ethane-1,2-dione] | 2070 |  | 155.00 ± 1.0 μg/mL trolox/gram DW |  | 38 (≈ 157 µM) | 75 (≈ 310 µM) | 54.69 | 1910 | 12.87 ± 0.9 | 1555 ± 34.1 | 9 to 18 (≈ 37.2 to 74.3 µM) | 18 (≈ 74.3 µM) |  |  | 75 (≈ 310 µM) | 75 (≈ 310 µM) | 38 (≈ 157 µM) | 18 (≈ 74.3 µM) | 18 (≈ 74.3 µM) | GI50 [1]: 2.04 µg/mL (≈ 8.42 µM); IC50 [1]: 85.2 µg/mL (≈ 352 µM); GI50 [2]: 1.92 µg/mL (≈ 7.93 µM); IC50 [2]: 105 µg/mL (≈ 434 µM) |
| O=C(C(=O)c1cc(O)cc(O)c1)c1cccc(O)c1 [Compound 13, 1-(3,5-Dihydroxyphenyl)-2-(3-hydroxyphenyl)ethane-1,2-dione] | > 3870 | 167 (≈ 647 µM) |  |  | 167 (≈ 647 µM) |  | >1000 | > 3870 | 9.42 ± 0.8 | 1844 ± 56.2 | 9 to 18 (≈ 34.9 to 69.7 µM) |  |  |  |  | 11 (≈ 42.6 µM) | 11 (≈ 42.6 µM) |  | 11 (≈ 42.6 µM) | MIC ([6]; ATCC27853, read-out: MIC Pa): 11 µg/mL (≈ 42.6 µM); MIC ([13]; ATCC29212, read-out: MIC Ef): 21 µg/mL (≈ 81.3 µM); MIC ([10]; ATCC60193, 48 h): 41 µg/mL (≈ 159 µM); MIC ([11]; RSKK07038, 72 h): 21 µg/mL (≈ 81.3 µM) |
